Results from US20080227851A1, “L[…] L[…]” (priority 2007, published 2008).
Values after ≈ are worked out from the molar mass of the structure shown.

What was measured:
[1] = test system: KB cells; conditions: cited from earlier work
[2] = test system: A10 cells; conditions: 2-20 μM; cited from earlier work
[3] = test system: SKVLB-1; conditions: cited from earlier work; for Resistance factor (SKVLB-1/SK-OV-3): ratio of IC50 SKVLB-1/SK-OV-3
[4] = test system: SK-OV-3 (ovarian carcinoma) cell line; conditions: cited from earlier work
[5] = test system: MDA-MB-435; conditions: cited from earlier work
[6] = test system: tubulin polymer; conditions: radiolabeled Taxol; cited from earlier work
[7] = test system: purified tubulin; conditions: cited from earlier work
[8] = test system: human umbilical vein endothelial cells (HUVEC); conditions: read-out: IC50, inhibition of HUVEC proliferation; cited from earlier work
[9] = 0.01 N solution of HCl in acetone; cited from earlier work
[10] = test system: human umbilical vein endothelial cells (HUVEC); conditions: cited from earlier work
[11] = test system: MDA-MB-435 (human breast adenocarcinoma) cell line; conditions: cited from earlier work
[12] = test system: human breast carcinoma MDA-MB-435; assay: sulforhodamine assay, proliferation of human tumor cells, MDA-MB-435; assay type: cell-based; conditions: MDA-MB-435, sulforhodamine assay
Method: Laulimalide analogs disclosed herein were evaluated for the ability to inhibit the proliferation of human tumor cells using the sulforhodamine assay format (Mooberry et al., Cancer Research, 1999, 59, 653-660). The two cells lines selected were the human breast carcinoma MDA-MB-435 and the corresponding MDR cell line NCI/ADR, which overexpresses the PGP efflux pump protein.

[13] = SKVLB-1 (P-gp overexpressing MDR)

| SMILES | IC50, cytotoxic to KB cells [1] [µg/mL] | microtubule bundling [2] | IC50 [3, 13] [nM] | Resistance factor (SKVLB-1/SK-OV-3) [3] | IC50 [4] [nM] | IC50 [5] [nM] | IC50 (nM) [3, 13] | competition with Taxol binding to tubulin polymer [6] | polymerization of purified tubulin [7] | IC50 [8] [nM] | time to complete acid-catalyzed decomposition to isolaulimalide [9] | concentration inhibiting tubule formation and VEGF-induced HUVEC migration [10] | cell cycle arrest [11] | IC50 [12] [nM] |
| --- | --- | --- | --- | --- | --- | --- | --- | --- | --- | --- | --- | --- | --- | --- |
| C=C1C[C@H](C)C[C@@H]2CC=C[C@@H](C/C=C\C(=O)O[C@H]3C[C@@H](O[C@H]3/C=C/[C@@H]3CC(C)=CCO3)[C@@H](O)[C@@H](O)C1)O2 [Isolaulimalide, isolaulimalide] | > 0.2 | no microtubule bundles were observed | 2650 ± 1380 | 1.03 | 2570 ± 290 | 1970 ± 97 |  |  |  |  |  |  |  |  |
| CC(=O)O[C@H]1C(=O)[C@@]2(C)[C@H]([C@H](OC(=O)c3ccccc3)[C@]3(O)C[C@H](OC(=O)[C@H](O)[C@@H](NC(=O)c4ccccc4)c4ccccc4)C(C)=C1C3(C)C)[C@]1(OC(C)=O)CO[C@@H]1C[C@@H]2O [Taxol, paclitaxel] |  |  | > 100000 | >58480 | 1.71 ± 1.07 | 1.02 ± 0.25 | completely ineffective |  |  |  |  |  |  |  |
| C=C1C[C@H](C)C[C@@H]2CC=C[C@@H](C/C=C\C(=O)O[C@H]([C@@H](O)/C=C/[C@@H]3CC(C)=CCO3)C[C@@H]3O[C@H]3[C@@H](O)C1)O2 [Laulimalide, laulimalide] | 0.015 (≈ 0.0291 µM) | caused bundling of microtubules similar to that induced by Taxol | 1210 ± 490 | 105 | 11.5 ± 0.53 | 5.73 ± 0.58 |  | does not compete with Taxol | caused the polymerization of purified tubulin | 4 | four | subnanomolar | cell cycle arrest at the G2/M transition | 5.7 ± 0.6 |
